Experimental data reported in patent US10221165B2, “Flavone based EGFR inhibitors and process for preparation thereof” (Council of Scientific and Industrial Research, priority 2015, dated 2019).

Key:
[1] = Log P (Table 4); format: physicochemical; settings: method not stated
[2] = test system: A549 Cell line (Lung Cancer Cell line); experiment: Cell proliferation assay (MTT), in-vitro anticancer activity against A549 cell line; format: cell-based; settings: Homo sapiens, 72 h; for viability at 0.01 µM: A549, 0.01 μM; for viability at 0.1 µM: A549, 0.1 μM; for viability at 2.5 µM: A549, 2.5 μM; for viability at 5 µM: A549, 5 μM; for viability at 10 µM: A549, 10 μM
Method: (§1) Each cell line was plated in 96-well microtiter plates (10,000 cells per well), and serial dilutions of indicated compounds were added. At the end of the incubation period (72 h at 37° C.), cell viability was determined by a tetrazolium dye, MTT (3-(4,5-dimethylthiazol-2-yl)-2,5-diphenyl tetrazolium bromide) (Promega, USA). The formazan crystals were dissolved in DMSO, and the absorbance at 600 nm was recorded using an ELISA plate reader. IC50 values were calculated using nonlinear regression and defined as the concentration needed for a 50% reduction in absorbance of treated versus untreated control cells.
In-Vitro Anticancer Activity Against A549 Cell Line (Lung Cancer Cell Line) (Adenocarcinomic Human Alveolar Basal Epithelial Cells)

[3] = test system: U87MG Cell line (glioblastoma cell line); experiment: Cell proliferation assay (MTT), in-vitro anticancer activity against U87MG cell line; format: cell-based; settings: Homo sapiens, U-87 MG, 72 h
Method: as §1
In-Vitro Anticancer Activity Against U87MG Cell Line (Glioblastoma Cell Line)

logP [1]	melting point [°C]	SMILES	viability at 0.01 µM [2] [%]	viability at 0.1 µM [2] [%]	viability at 2.5 µM [2] [%]	viability at 5 µM [2] [%]	viability at 10 µM [2] [%]	viability at 0.01 µM [3] [%]	viability at 0.1 µM [3] [%]	viability at 2.5 µM [3] [%]	viability at 5 µM [3] [%]	viability at 10 µM [3] [%]
2.6	220 to 222	COc1ccc(Nc2nc(N)c(-c3cc(=O)c4ccc(OC)cc4o3)s2)cc1 [Compound S1-M14, 2-(2-(4-methoxyphenylamino)-4-aminothiazol-5-yl)-7-methoxy-4H-chromen-4-one]	98	89.1	81.1	71.1	63.1	91	80.1	70.6	61.3	51.1
2.11	288 to 290	COc1ccc2oc(-c3sc(Nc4ccccc4C)nc3N)cc(=O)c2c1 [Compound S1-M11, 2-(2-(o-tolylamino)-4-aminothiazol-5-yl)-6-methoxy-4H-chromen-4-one]	99.8	93.7	84.8	72.8	62.8	83.8	75.7	67.2	58.8	49.8
3.42	224 to 226	Cc1cccc(C)c1Nc1nc(N)c(-c2cc(=O)c3ccc(O)cc3o2)s1 [Compound S1-M4, 2-(2-(2,6-dimethylphenylamino)-4-aminothiazol-5-yl)-7-hydroxy-4H-chromen-4-one]	88.6	85.8	77.6	68.6	61.6	80.6	71.8	65.6	58.6	50.6
2.7	228 to 230	COc1ccc2oc(-c3sc(Nc4c(C)cccc4C)nc3N)cc(=O)c2c1 [Compound S1-M12, 2-(2-(2,6-dimethylphenylamino)-4-aminothiazol-5-yl)-6-methoxy-4H-chromen-4-one]	92.1	95.4	86.9	78.9	66.9	85.1	73.4	65.9	56.9	45.8
2.18	260 to 262	COc1ccc2oc(-c3sc(Nc4c(Cl)cccc4Cl)nc3N)cc(=O)c2c1 [Compound S1-M13, 2-(2-(2,6-dichlorophenylamino)-4-aminothiazol-5-yl)-6-methoxy-4H-chromen-4-one]	95.4	90.9	82.6	72.6	62.6	90.4	81.9	72.4	64.6	55.9
3.32	218 to 220	Nc1nc(Nc2ccccc2)sc1-c1cc(=O)c2ccc(O)cc2o1 [Compound S1-M8, 2-(4-amino-2-(phenylamino)thiazol-5-yl)-7-hydroxy-4H-chromen-4-one]	93.3	87.1	75	64	54	88.3	76.1	68	59	51.4
1.9	244 to 246	Cc1ccc(Nc2nc(N)c(-c3cc(=O)c4ccc(O)cc4o3)s2)cc1 [Compound S1-M2, 2-(2-(p-tolylamino)-4-aminothiazol-5-yl)-7-hydroxy-4H-chromen-4-one]	56.1	41.1	31.1	24.1	20.9	41.1	34.4	28.1	19.6	14.9
3.2	232 to 234	Nc1nc(Nc2ccccc2)sc1-c1cc(=O)c2ccccc2o1 [Compound S1-M1, 2-(4-amino-2-(phenylamino)thiazol-5-yl)-4H-chromen-4-one]	100	90.5	82.5	75.5	60.5	88	79.5	70.5	62.5	51.5
		COc1cc2ncnc(Nc3ccc(F)c(Cl)c3)c2cc1OCCCN1CCOCC1 [Gefitinib, gefitinib, reference compound]	55.2	43.7	35.3	29.3	20.3	55.2	43.7	35.3	29.3	20.3
3.02	260 to 262	Nc1nc(Nc2c(Cl)cccc2Cl)sc1-c1cc(=O)c2ccc(O)cc2o1 [Compound S1-M5, 2-(2-(2,6-dichlorophenylamino)-4-aminothiazol-5-yl)-7-hydroxy-4H-chromen-4-one]	98.8	91.6	83.9	71.9	65.9	84.8	77.6	69.9	60.9	52.9
1.9	200 to 202	Cc1ccc(Nc2nc(N)c(-c3cc(=O)c4ccccc4o3)s2)cc1 [Compound S1-M9, 2-(2-(p-tolylamino)-4-aminothiazol-5-yl)-4H-chromen-4-one]	100	91.8	87.3	77.3	67.3	87	78.8	70.3	62.3	55.6
2.5	210 to 212	COc1ccc2c(=O)cc(-c3sc(Nc4ccccc4OC)nc3N)oc2c1 [Compound S1-M15, 2-(2-(2-methoxyphenylamino)-4-aminothiazol-5-yl)-7-methoxy-4H-chromen-4-one]	96.1	92.7	85.3	75.3	68.3	89.1	77.9	68.7	60.7	50.3
2.01	268 to 270	Cc1ccccc1Nc1nc(N)c(-c2cc(=O)c3ccc(O)cc3o2)s1 [Compound S1-M3, 2-(2-(o-tolylamino)-4-aminothiazol-5-yl)-7-hydroxy-4H-chromen-4-one]	97.6	91.4	85.8	74.8	55.8	82.6	74.4	68.8	60.8	54.8
2.11	210 to 212	COc1ccccc1Nc1nc(N)c(-c2cc(=O)c3ccc(O)cc3o2)s1 [Compound S1-M7, 2-(2-(2-methoxyphenylamino)-4-aminothiazol-5-yl)-7-hydroxy-4H-chromen-4-one]	96.1	94.9	84.8	74.8	66.8	85.1	75.9	65.8	57.8	45.8
1.92	220 to 222	COc1ccc(Nc2nc(N)c(-c3cc(=O)c4ccc(O)cc4o3)s2)cc1 [Compound S1-M6, 2-(2-(4-methoxyphenylamino)-4-aminothiazol-5-yl)-7-hydroxy-4H-chromen-4-one]	53.1	45.1	36.7	27.9	19.4	48.7	35.2	25.8	19.9	12.9
3.99	280 to 282	COc1ccc2oc(-c3sc(Nc4ccc(C)cc4)nc3N)cc(=O)c2c1 [Compound S1-M10, 2-(2-(p-tolylamino)-4-aminothiazol-5-yl)-6-methoxy-4H-chromen-4-one]	96.9	93	86.4	76.4	66.4	87.9	78	69.4	59.4	50.4
